The values that follow come from patent publication US7470446B2, “Method and system for supplying amino acids or chemical derivatives in liquid form to ruminant livestock” (Archer-Daniels-Midland Company, priority 2000, dated 2008).

Where two headings read alike, the source gives them in different places.

This data set can be described thus: Plasma lysine response after liquid lysine drench. Type of data set: in vivo, bovines. To be noted: cattle (bovine), oral, 60 g; for concentration at 148 min: 148 minutes (so in the source). The source says: The following study, performed using liquid lysine supplied in a 60-gram amino acid dose in a liquid drench to two bovines, gave the following response curves in the plasma level of the lysine, which is an index of its absorption by the animals, and illustrates that the esophageal muscle reflex is active: […]

Where [1] appears, read: Cow 1, 60-gram dose, read-out: Cow 1, plasma lysine.
[2] abbreviates: Cow 2, 60-gram dose, read-out: Cow 2, plasma lysine.

With `NCCCC[C@H](N)C(=O)O` [liquid lysine, lysine], the concentration at 0 min (Cow 1, 60-gram amino acid dose, read-out: Cow 1, plasma lysine) stood at 10000 ng/mL. Also, under setting [1], the concentration at 80 min worked out at 11300 ng/mL, the concentration at 148 min turned out to be 19700 ng/mL, the concentration at 160 min worked out at 12400 ng/mL and the concentration at 240 min was 16100 ng/mL. Moreover, under setting [1], the concentration at 360 min was 17300 ng/mL, the concentration at 420 min turned out to be 17500 ng/mL, the concentration at 540 min was 19300 ng/mL and the concentration at 600 min was found to be 15400 ng/mL. Also, the concentration at 24 h under setting [1] stood at 14400 ng/mL. Besides, the concentration at 0 min (Cow 2, 60-gram amino acid dose, read-out: Cow 2, plasma lysine) was found to be 10700 ng/mL. Under setting [2], the concentration at 80 min amounted to 10800 ng/mL, the concentration at 148 min came to 20000 ng/mL, the concentration at 160 min was found to be 13600 ng/mL and the concentration at 240 min was found to be 22400 ng/mL. Under setting [2], the concentration at 360 min turned out to be 24200 ng/mL, the concentration at 420 min worked out at 24200 ng/mL, the concentration at 540 min came to 17000 ng/mL and the concentration at 600 min was determined as 14200 ng/mL. For the same molecule, the concentration at 24 h under setting [2] came out at 12000 ng/mL.
